Tests used:
Oct-4/GFP+ OS521 cells = assay: Tumor formation in NOD/SCID mice after in vitro pretreatment of Oct-4/GFP-enriched OS521 cells with differentiation inducers; format: in vivo; conditions: 3×10^4 cells per mouse
From the text: It was hypothesized that if the Oct-4/GFP+ tumorigenic cells reflected a stem-like phenotype, their tumorigenic ability might also be inhibited by forced cellular differentiation. Therefore prior to delivery into the NOD/SCID mouse model, the Oct-4/GFP-enriched cell populations were pretreated in vitro with three different compounds known to be potent inducers of differentiation: ATRA, leukemia inhibitory factor (LIF), and recombinant bone morphogenetic protein (BMP) 4/7 heterodimer and evaluated their effect of each on tumorigenicity.
Following delivery of Oct-4/GFP transfected OS521 cells into NOD/SCID mice, cells isolated from the resultant tumors were sorted by FACS and the GFP-enriched population was plated in 12 well plates and treated with either LIF (10^4 to 0.5×10^2 U/ml), ATRA (1 μM), or recombinant BMP 4/7 (100 ng/ml) for 72 hours. Untreated cells were used as controls. Following the incubation period, 5 NOD/SCID mice per group were injected at 3×10^4 cells per mouse with cells from each treated pool and the mice were monitored for subsequent tumor formation. […] The BMPs are members of the TGF-β superfamily and are known to be potent agents of cellular differentiation, particularly with respect to chondro- and osteoinduction of mesenchymal progenitor cells. BMP 4/7 appears to inhibit the tumorigenesis of the Oct-4/GFP+ OS521 cells after transient induction.

Oct-4/EGFP expression = Oct-4/EGFP expression in osteosarcoma cultures treated in vitro; format: cell-based; conditions: osteosarcoma cultures in DMEM with 75-100 ng/ml BMP4/7; FIG. 13
Method: (§1) Cells were cultured in DMEM and 75-100 ng/ml of BMP4/7 (control cells were not cultured with BMP4/7).

osteosarcoma cultures = assay: Tumor generation by osteosarcoma cells cultured with BMP4/7; format: in vivo; conditions: cells cultured in DMEM with 75-100 ng/ml BMP4/7; 10 weeks post-treatment
Method: as §1

## CC1=C(/C=C/C(C)=C/C=C/C(C)=C/C(=O)O)C(C)(C)CCC1 [ATRA, reference compound]
Oct-4/GFP+ OS521 cells; GFP-enriched OS521 cells treated with ATRA 1 μM for 72 hours
  tumor formation: tumor formation by 5 weeks

## leukemia inhibitory factor [LIF]
Oct-4/GFP+ OS521 cells; GFP-enriched OS521 cells treated with LIF 10^4 to 0.5×10^2 U/ml for 72 hours
  tumor formation: tumor formation by 5 weeks

## recombinant bone morphogenetic protein (BMP) 4/7 heterodimer [BMP 4/7]
Oct-4/EGFP expression
  Oct-4/EGFP expression: affects Oct-4/EGFP expression
Oct-4/GFP+ OS521 cells; GFP-enriched OS521 cells treated with recombinant BMP 4/7 100 ng/ml for 72 hours, followed twelve weeks
  tumor formation: none of the mice in the BMP 4/7 treated group developed tumors by twelve weeks
Osteosarcoma cultures
  tumor generation by treated cells: have not yet generated tumors

Reference: patent US20090239217A1, “STEM-LIKE CELLS IN BONE SARCOMAS” (University of Florida Research Foundation, Inc., priority 2008, published 2009)
